Laboratory results as given in patent US20220153746A1, “NITROGEN OXIDE-DONATING PDE-5 AND/OR PDE-6 INHIBITOR COMPOUNDS, AND USES THEREOF” (ILDONG PHARMACEUTICAL CO., LTD., priority 2020, published 2022).
Read-outs that look alike come from different tables or passages of the source.

Assay: PK Phase (Group 2): plasma concentrations and pharmacokinetics of Compound 18 and its metabolite Compound 4 after once daily ocular instillation of Compound 18 nanosuspension for 7 days
Assay type: in vivo, New Zealand white rabbits
Conditions: for Cmax / Tmax / AUC(0-t) / half-life: male, New Zealand white, rabbit, plasma, topical or ocular, 0.8 mg/kg; for AUC(0-t): read-out: AUC0-24; for Day 1 Compound 4 Plasma Concentration / Day 7 Compound 4 Plasma Concentration: metabolite after Compound 18 dosing
Excerpt: This example illustrates the procedures and results for the levels of Compound 18 and its metabolite Compound 4 in plasma and ocular tissues of normotensive rabbits following ocular instillation of Compound 18 once daily for 7 consecutive days.
Twenty five (25) male New Zealand white rabbits were divided into 5 groups of varying amounts of animals per group.
The Test article, Compound 18 was formulated as a 2% nanosuspension in DI water containing 0.2% PS80 (polyoxyethylenesorbitan, monooleate (Tween 80)) and 0.4% HPMC (hydroxypropylmethylcellulose) at pH 6.77. Referred to herein as “Compound 18 nanosuspension.”
The study consisted of three groups (Groups 1-3) of 19 male rabbits (NZW) that underwent once daily morning ocular installation (1 eyedrop) for 7 consecutive days (Day 0-6). Groups 4-5 each consisted of 3 male rabbits (NZW) that were not dosed.
Blood samples (1 mL) were collected from the jugular vein at the intervals set out below for each group. The samples were then inverted several times following collection and held on wet ice until centrifuged. Samples were centrifuged within 60 minutes of collection under refrigeration (set at 5° C. for 10 minutes at 2000 g. […]
Plasma and tissue samples from treated animals (Groups 1-3) were analyzed for Compound 18 and its metabolite Compound 4 concentrations by LC-MS/MS.
Pharmacokinetic analysis was conducted using WinNonlin Version 6.2.1 (Pharsight, Mountain View, Calif.), operating as a validated software system. Noncompartmental analysis was conducted using the extravascular administration model for ocular instillation dosing.
The peak plasma concentration, time to achieve peak plasma concentration, half-life, and area under the plasma concentration-time curve (Cmax, Tmax, T1/2, and AUC) were calculated from the PK phase individual animal plasma concentrations for each sampling time/dose group for Compound 18 and its metabolite Compound 4.
BA Assay: Quantitation Range 0.05 to 100 ng/mL for Compound 18, 0.15 to 100 ng/mL for Compound 4.
Plasma calibration standards (PLSTD-A) with Compound 18 concentrations ranging from 0.0500 to 100 ng/mL were prepared by spiking control rabbit plasma with appropriate calibration curve spiking solutions (SS-A). PLQC-A samples with concentrations of 0.150, 5.00, 50.0, and 80.0 ng/mL were prepared by spiking control rabbit plasma with appropriate SS-A-QC spiking solutions.
Plasma calibration standards (PLSTD-B) with Compound 4 concentrations ranging from 0.150 to 100 ng/mL were prepared by spiking control rabbit plasma with appropriate calibration curve spiking solutions (SS-B). PLQC-B samples with concentrations of 0.450, 5.00, 50.0, and 80.0 ng/mL were prepared by spiking control rabbit plasma with appropriate SS-B-QC spiking solutions. PLQC-B-Dil samples at 800 ng/mL were prepared by spiking control rabbit plasma with the SS-B-QC-Dil spiking solution at 16,000 ng/mL, and then diluted 20× with control rabbit plasma prior to extraction.
1. Thaw plasma standards, plasma QC samples, ocular tissue QC samples, incurred plasma samples and ocular tissue samples (AH/VH) (if applicable) on wet ice. Control plasma can be thawed in tepid water. Vortex before taking aliquots.
2. Pipet 50 μL of water for Reagent Blank, 50 μL of control plasma for Double Blank and Blank, 50 μL of pre-spiked plasma for Standards and QC samples, 50 μL of incurred plasma samples (if applicable) into a 96 well plate.
5. Add 200 μL of working internal standard (WIS) solution to all remaining samples.
6. Seal the plate and vortex for approximately 5 minutes. Centrifuge the plate at 3500 rpm for 10 minutes at ˜4° C.
7. Transfer ˜200 μL of each sample supernatant into the appropriate wells of a 96 well plate. Submit for LC MS/MS analysis.
A total of 25 rabbits were used for this study, including 19 treated rabbits and 6 control rabbits. […]

[1] = Day 1, Compound 18 0.8 mg/kg ocular instillation, Mean, n=4
[2] = Day 1, Compound 18 0.8 mg/kg ocular instillation, animal 207664
[3] = Day 1, Compound 18 0.8 mg/kg ocular instillation, animal 207665
[4] = Day 1, Compound 18 0.8 mg/kg ocular instillation, animal 207666
[5] = Day 1, Compound 18 0.8 mg/kg ocular instillation, animal 207667
[6] = Day 7, Compound 18 0.8 mg/kg ocular instillation, Mean, n=4
[7] = Day 7, Compound 18 0.8 mg/kg ocular instillation, animal 207664
[8] = Day 7, Compound 18 0.8 mg/kg ocular instillation, animal 207665
[9] = Day 7, Compound 18 0.8 mg/kg ocular instillation, animal 207666
[10] = Day 7, Compound 18 0.8 mg/kg ocular instillation, animal 207667

Compound `CCCc1nn(C)c2c(=O)[nH]c(-c3cc(S(=O)(=O)N4CC(CCCO)C4)ccc3OCC)nc12` [Compound 4, 5-(2-ethoxy-5-((3-(3-hydroxypropyl)azetidin-1-yl)sulfonyl)phenyl)-1-methyl-3-propyl-1,6-dihydro-7H-pyrazolo[4,3-d]pyrimidin-7-one] has a Cmax [1] of 0.944 ± 0.565 ng/mL, a Tmax [1] of 30 min and an AUC(0-t) [1] of 1.14 ± 0.957 ng·h/mL. It also gave a Cmax [2] of 0.497 ng/mL, a Tmax [2] of 30 min and an AUC(0-t) [2] of 0.575 ng·h/mL. The Cmax [3] was 0.527 ng/mL, the Tmax [3] was 30 min and the half-life (Day 1, Compound 18 0.8 mg/kg ocular instillation, animal 207665 (one rabbit reportable)) was 24.8 min. The AUC(0-t) [3] was 0.321 ng·h/mL, the Cmax [4] was 1.7 ng/mL and the Tmax [4] was 30 min. The AUC(0-t) [4] was 2.46 ng·h/mL, the Cmax [5] was 1.05 ng/mL and the Tmax [5] was 30 min. For the same compound, the AUC(0-t) [5] was 1.18 ng·h/mL, the half-life (Day 7, Compound 18 0.8 mg/kg ocular instillation, Mean, n=2) was 79.2 ± 42.1 min and the Cmax [6] was 0.963 ± 0.17 ng/mL. For the same compound, the Tmax [6] was 45 ± 17.4 min, the AUC(0-t) [6] was 1.71 ± 0.416 ng·h/mL and the Cmax [7] was 0.851 ng/mL. For the same compound, the Tmax [7] was 30 min, the AUC(0-t) [7] was 1.13 ng·h/mL and the Cmax [8] was 0.938 ng/mL. For the same compound, the Tmax [8] was 30 min, the half-life [8] was 49.4 min and the AUC(0-t) [8] was 1.72 ng·h/mL. It also gave a Cmax [9] of 0.851 ng/mL, a Tmax [9] of 60 min and a half-life [9] of 109 min. The AUC(0-t) [9] was 1.92 ng·h/mL, the Cmax [10] was 1.21 ng/mL and the Tmax [10] was 60 min. For the same compound, the AUC(0-t) [10] was 2.08 ng·h/mL, the “Day 1 Compound 4 Plasma Concentration” value (2 h, animal 207665) was “BQL (BQL = Below lower limit of quantitation (0.0500 ng/mL for Compound 18 and 0.150 ng/mL for Compound 4))” and the “Day 1 Compound 4 Plasma Concentration” value (4 h, animal 207664) was “BQL (BQL = Below lower limit of quantitation (0.0500 ng/mL for Compound 18 and 0.150 ng/mL for Compound 4))”. For the same compound, the “Day 7 Compound 4 Plasma Concentration” value (4 h, animal 207664) was “BQL (BQL = Below lower limit of quantitation (0.0500 ng/mL for Compound 18 and 0.150 ng/mL for Compound 4))”, the “Day 1 Compound 4 Plasma Concentration” value (4 h, animal 207665) was “BQL (BQL = Below lower limit of quantitation (0.0500 ng/mL for Compound 18 and 0.150 ng/mL for Compound 4))” and the “Day 7 Compound 4 Plasma Concentration” value (4 h, animal 207665) was “BQL (BQL = Below lower limit of quantitation (0.0500 ng/mL for Compound 18 and 0.150 ng/mL for Compound 4))”. The “Day 1 Compound 4 Plasma Concentration” value (4 h, animal 207667) was “BQL (BQL = Below lower limit of quantitation (0.0500 ng/mL for Compound 18 and 0.150 ng/mL for Compound 4))”, the “Day 1 Compound 4 Plasma Concentration” value (8 h, animal 207664) was “BQL (BQL = Below lower limit of quantitation (0.0500 ng/mL for Compound 18 and 0.150 ng/mL for Compound 4))” and the “Day 7 Compound 4 Plasma Concentration” value (8 h, animal 207664) was “BQL (BQL = Below lower limit of quantitation (0.0500 ng/mL for Compound 18 and 0.150 ng/mL for Compound 4))”. The “Day 1 Compound 4 Plasma Concentration” value (8 h, animal 207665) was “BQL (BQL = Below lower limit of quantitation (0.0500 ng/mL for Compound 18 and 0.150 ng/mL for Compound 4))”, the “Day 1 Compound 4 Plasma Concentration” value (8 h, animal 207666) was “BQL (BQL = Below lower limit of quantitation (0.0500 ng/mL for Compound 18 and 0.150 ng/mL for Compound 4))” and the “Day 7 Compound 4 Plasma Concentration” value (8 h, animal 207666) was “BQL (BQL = Below lower limit of quantitation (0.0500 ng/mL for Compound 18 and 0.150 ng/mL for Compound 4))”. The “Day 1 Compound 4 Plasma Concentration” value (8 h, animal 207667) was “BQL (BQL = Below lower limit of quantitation (0.0500 ng/mL for Compound 18 and 0.150 ng/mL for Compound 4))”, the “Day 7 Compound 4 Plasma Concentration” value (8 h, animal 207667) was “BQL (BQL = Below lower limit of quantitation (0.0500 ng/mL for Compound 18 and 0.150 ng/mL for Compound 4))” and the “Day 1 Compound 4 Plasma Concentration” value (24 h, animal 207664) was “BQL (BQL = Below lower limit of quantitation (0.0500 ng/mL for Compound 18 and 0.150 ng/mL for Compound 4))”. The “Day 7 Compound 4 Plasma Concentration” value (24 h, animal 207664) was “BQL (BQL = Below lower limit of quantitation (0.0500 ng/mL for Compound 18 and 0.150 ng/mL for Compound 4))”, the “Day 1 Compound 4 Plasma Concentration” value (24 h, animal 207665) was “BQL (BQL = Below lower limit of quantitation (0.0500 ng/mL for Compound 18 and 0.150 ng/mL for Compound 4))” and the “Day 7 Compound 4 Plasma Concentration” value (24 h, animal 207665) was “BQL (BQL = Below lower limit of quantitation (0.0500 ng/mL for Compound 18 and 0.150 ng/mL for Compound 4))”. The “Day 1 Compound 4 Plasma Concentration” value (24 h, animal 207666) was “BQL (BQL = Below lower limit of quantitation (0.0500 ng/mL for Compound 18 and 0.150 ng/mL for Compound 4))”, the “Day 7 Compound 4 Plasma Concentration” value (24 h, animal 207666) was “BQL (BQL = Below lower limit of quantitation (0.0500 ng/mL for Compound 18 and 0.150 ng/mL for Compound 4))” and the “Day 1 Compound 4 Plasma Concentration” value (24 h, animal 207667) was “BQL (BQL = Below lower limit of quantitation (0.0500 ng/mL for Compound 18 and 0.150 ng/mL for Compound 4))”. For the same compound, the “Day 7 Compound 4 Plasma Concentration” value (24 h, animal 207667) was “BQL (BQL = Below lower limit of quantitation (0.0500 ng/mL for Compound 18 and 0.150 ng/mL for Compound 4))”.
